{"source": "EPA's ToxValDB 9.5", "key": {"Mus musculus": {"system": "Mus musculus", "conditions": "oral"}, "Rattus norvegicus": {"system": "Rattus norvegicus", "conditions": "oral, gavage"}, "[1]": {"conditions": "developmental, duration: 20 days, gavage, F, ICR, Developmental: Decreases in pup body weight / delays in eye opening, vaginal opening, and first estrous / decreases in ovarian follicles…"}, "[2]": {"conditions": "developmental, duration: 15 days, F, Body Weight: 12% decrease in maternal body weight + Developmental: 12-13% decrease in fetal body weights"}, "[3]": {"conditions": "developmental, duration: 15 days, F, Body Weight: 31% decrease in maternal body weight gain + Developmental: Decreases in fetal body weight (9%) and delays in hindlimb …"}, "[4]": {"conditions": "reproduction developmental, duration: 70 days, Sprague-Dawley, Body Weight: Medullary/papillary tubular and ductal hyperplasia in P0 and F1"}, "[5]": {"conditions": "subchronic, duration: 90 days, M, Sprague-Dawley, Hematological: Decreased hemoglobin (4.9%) and hematocrit (5.2%)"}, "[6]": {"conditions": "subchronic, duration: 90 days, Sprague-Dawley, Gastrointestinal: Necrosis of individual squamous cells in forestomach and hyperplasia and hyperkeratosis of limiting ridge + Renal: …"}, "[7]": {"conditions": "developmental, duration: 13 days, gavage, F, CD1, Developmental: 12.5% decrease in birth weight and delayed eye opening at ?350 mg/kg/day / increased pup mortality (PND 0-3) and decreased …"}, "[8]": {"conditions": "developmental, duration: 13 days, gavage, F, CD1, Developmental: Increase in stillborn pups and 12.5% decrease in birth weight"}, "[9]": {"conditions": "chronic, duration: 93 days, F, Endocrine: Thyroid follicular epithelial hypertrophy"}, "[10]": {"conditions": "chronic, duration: 93 days, M/F, Hematological: Decreased RBC, hemoglobin, and hematocrit / increased reticulocytes / erythroid hypertrophy in bone marrow and …"}, "[11]": {"conditions": "chronic, duration: 93 days, M/F, Respiratory: Degeneration/atrophy of nasal olfactory epithelium at ?100 mg/kg/day and respiratory metaplasia at 500 mg/kg/day"}, "[12]": {"conditions": "chronic, duration: 93 days, M, Body Weight: 19% decrease in body weight gain"}, "[13]": {"conditions": "developmental, duration: 20 days, F, Body Weight: Decreased maternal weight gain (19%) + Developmental: Decreased fetal weight (10%)"}, "[14]": {"conditions": "developmental, duration: 126 days, M/F, Developmental: Decreased pup body weight (17-18%) during lactation period"}, "[15]": {"conditions": "reproduction developmental, duration: 126 days, M, Body Weight: Decreased weight gain (12%) / decreased maternal weight gain during GDs 0-7 and increased maternal weight gain during …"}, "[16]": {"conditions": "subchronic, duration: 44 days, F, Immunotoxicological: Thymic atrophy in 3/9 females"}, "[17]": {"conditions": "subchronic, duration: 44 days, M, Hematological: Decreased hemoglobin levels / increased reticulocytes at 315 mg/kg/day"}, "[18]": {"conditions": "subchronic, duration: 90 days, M/F, Sprague-Dawley, Hematological: Slight decreases in RBC, hemoglobin, and hematocrit and increases in reticulocytes"}}}
{"smiles": "O=S(=O)(O)C(F)(F)C(F)(F)C(F)(F)C(F)(F)F", "note": "[Perfluorobutanesulfonic acid]", "values": [{"measurement": "NOAEL", "setting": "Mus musculus; developmental, duration: 20 days, gavage, F, ICR", "result": 500, "unit": "mg/kg-day"}, {"measurement": "LOAEL", "setting": "Mus musculus; [1]", "result": 200, "unit": "mg/kg-day"}, {"measurement": "NOAEL", "setting": "Mus musculus; [1]", "result": 50, "unit": "mg/kg-day"}, {"measurement": "NOAEL", "setting": "Mus musculus; subchronic, duration: 6 weeks, diet, M, Hepatic: Decreased plasma triglyceride levels", "result": 30, "unit": "mg/kg-day"}, {"measurement": "LOAEL", "setting": "Rattus norvegicus; [2]", "result": 2000, "unit": "mg/kg-day"}, {"measurement": "NOAEL", "setting": "Rattus norvegicus; [2]", "result": 1000, "unit": "mg/kg-day"}, {"measurement": "LOAEL", "setting": "Rattus norvegicus; [3]", "result": 1000, "unit": "mg/kg-day"}, {"measurement": "NOAEL", "setting": "Rattus norvegicus; [3]", "result": 300, "unit": "mg/kg-day"}, {"measurement": "NOAEL", "setting": "Rattus norvegicus; reproduction developmental, duration: 70 days, Sprague-Dawley, Body Weight: Increased liver weight in males at ?300 mg/kg/day", "result": 1000, "unit": "mg/kg-day"}, {"measurement": "LOAEL", "setting": "Rattus norvegicus; [4]", "result": 300, "unit": "mg/kg-day"}, {"measurement": "NOAEL", "setting": "Rattus norvegicus; [4]", "result": 100, "unit": "mg/kg-day"}, {"measurement": "NOAEL", "setting": "Rattus norvegicus; short-term, duration: 28 days, Sprague-Dawley, Hepatic: Increased absolute and relative liver weight at 900 mg/kg/day + Immunotoxicological: No histological alterations + Neurological: No…", "result": 900, "unit": "mg/kg-day"}, {"measurement": "LOAEL", "setting": "Rattus norvegicus; [5]", "result": 200, "unit": "mg/kg-day"}, {"measurement": "NOAEL", "setting": "Rattus norvegicus; [5]", "result": 60, "unit": "mg/kg-day"}, {"measurement": "NOAEL", "setting": "Rattus norvegicus; subchronic, duration: 90 days, Sprague-Dawley", "result": 600, "unit": "mg/kg-day"}, {"measurement": "LOAEL", "setting": "Rattus norvegicus; [6]", "result": 600, "unit": "mg/kg-day"}, {"measurement": "NOAEL", "setting": "Rattus norvegicus; [6]", "result": 200, "unit": "mg/kg-day"}]}
{"smiles": "O=C(O)C(F)(F)C(F)(F)C(F)(F)C(F)(F)C(F)(F)F", "note": "[Perfluorohexanoic acid]", "values": [{"measurement": "LOAEL", "setting": "Mus musculus; [7]", "result": 350, "unit": "mg/kg-day"}, {"measurement": "NOAEL", "setting": "Mus musculus; [7]", "result": 100, "unit": "mg/kg-day"}, {"measurement": "LOAEL", "setting": "Mus musculus; [8]", "result": 175, "unit": "mg/kg-day"}, {"measurement": "NOAEL", "setting": "Mus musculus; [8]", "result": 35, "unit": "mg/kg-day"}, {"measurement": "LOAEL", "setting": "Rattus norvegicus; acute, duration: 1 days, F, Sprague-Dawley, Death: 1/4 died at […] / 3/3 died at 5,000 mg/kg/day", "result": 1750, "unit": "mg/kg-day"}, {"measurement": "LOAEL", "setting": "Rattus norvegicus; acute, duration: 1 days, F, Sprague-Dawley, Neurological: Abnormal gait, salivation, ataxia, lethargy", "result": 175, "unit": "mg/kg-day"}, {"measurement": "LOAEL", "setting": "Rattus norvegicus; chronic, duration: 104 weeks, F, Sprague-Dawley, Death: 36, 43, 33, and 22% survival rate in females at 0, 5, 30, and 200 mg/kg/day, respectivel", "result": 200, "unit": "mg/kg-day"}, {"measurement": "LOAEL", "setting": "Rattus norvegicus; chronic, duration: 104 weeks, F, Sprague-Dawley, Hematological: 8.1% reduction in mean RBC count and 5.2% reduction in hemoglobin at 51 weeks / 23.6 and 53.6% increase in reticulocyte …", "result": 200, "unit": "mg/kg-day"}, {"measurement": "NOAEL", "setting": "Rattus norvegicus; chronic, duration: 104 weeks, M, Sprague-Dawley, Hematological: 8.1% reduction in mean RBC count and 5.2% reduction in hemoglobin at 51 weeks / 23.6 and 53.6% increase in reticulocyte …", "result": 100, "unit": "mg/kg-day"}, {"measurement": "LOAEL", "setting": "Rattus norvegicus; [9]", "result": 500, "unit": "mg/kg-day"}, {"measurement": "NOAEL", "setting": "Rattus norvegicus; [9]", "result": 100, "unit": "mg/kg-day"}, {"measurement": "LOAEL", "setting": "Rattus norvegicus; [10]", "result": 500, "unit": "mg/kg-day"}, {"measurement": "NOAEL", "setting": "Rattus norvegicus; [10]", "result": 100, "unit": "mg/kg-day"}, {"measurement": "NOAEL", "setting": "Rattus norvegicus; chronic, duration: 93 days, M/F, Hepatic: Hepatocellular hypertrophy in males at ?100 mg/kg/day and females at 500 mg/kg/day", "result": 500, "unit": "mg/kg-day"}, {"measurement": "LOAEL", "setting": "Rattus norvegicus; [11]", "result": 100, "unit": "mg/kg-day"}, {"measurement": "NOAEL", "setting": "Rattus norvegicus; [11]", "result": 20, "unit": "mg/kg-day"}, {"measurement": "LOAEL", "setting": "Rattus norvegicus; [12]", "result": 500, "unit": "mg/kg-day"}, {"measurement": "NOAEL", "setting": "Rattus norvegicus; [12]", "result": 200, "unit": "mg/kg-day"}, {"measurement": "LOAEL", "setting": "Rattus norvegicus; chronic, duration: 126 days, F", "result": 500, "unit": "mg/kg-day"}, {"measurement": "NOAEL", "setting": "Rattus norvegicus; chronic, duration: 126 days, F", "result": 100, "unit": "mg/kg-day"}, {"measurement": "NOAEL", "setting": "Rattus norvegicus; chronic, duration: 126 days, M/F", "result": 500, "unit": "mg/kg-day"}, {"measurement": "LOAEL", "setting": "Rattus norvegicus; [13]", "result": 500, "unit": "mg/kg-day"}, {"measurement": "NOAEL", "setting": "Rattus norvegicus; [13]", "result": 100, "unit": "mg/kg-day"}, {"measurement": "LOAEL", "setting": "Rattus norvegicus; [14]", "result": 500, "unit": "mg/kg-day"}, {"measurement": "NOAEL", "setting": "Rattus norvegicus; [14]", "result": 100, "unit": "mg/kg-day"}, {"measurement": "NOAEL", "setting": "Rattus norvegicus; reproduction developmental, duration: 44 days, M/F, Gastrointestinal: Stomach erosions/ulceration in dying or sacrificed in extremis rats administered 450 mg/kg/day for 4 days + Hepatic: …", "result": 315, "unit": "mg/kg-day"}, {"measurement": "LOAEL", "setting": "Rattus norvegicus; [15]", "result": 100, "unit": "mg/kg-day"}, {"measurement": "NOAEL", "setting": "Rattus norvegicus; [15]", "result": 20, "unit": "mg/kg-day"}, {"measurement": "NOAEL", "setting": "Rattus norvegicus; subchronic, duration: 44 days, F", "result": 315, "unit": "mg/kg-day"}, {"measurement": "LOAEL", "setting": "Rattus norvegicus; [16]", "result": 315, "unit": "mg/kg-day"}, {"measurement": "NOAEL", "setting": "Rattus norvegicus; [16]", "result": 150, "unit": "mg/kg-day"}, {"measurement": "NOAEL", "setting": "Rattus norvegicus; subchronic, duration: 44 days, M", "result": 315, "unit": "mg/kg-day"}, {"measurement": "LOAEL", "setting": "Rattus norvegicus; subchronic, duration: 44 days, M/F, Death: 8/30 deaths (includes rats sacrificed in extremis) during first 4 days of exposure", "result": 450, "unit": "mg/kg-day"}, {"measurement": "LOAEL", "setting": "Rattus norvegicus; [17]", "result": 150, "unit": "mg/kg-day"}, {"measurement": "NOAEL", "setting": "Rattus norvegicus; [17]", "result": 50, "unit": "mg/kg-day"}, {"measurement": "LOAEL", "setting": "Rattus norvegicus; [18]", "result": 200, "unit": "mg/kg-day"}, {"measurement": "NOAEL", "setting": "Rattus norvegicus; [18]", "result": 50, "unit": "mg/kg-day"}, {"measurement": "NOAEL", "setting": "Rattus norvegicus; subchronic, duration: 90 days, M/F, Sprague-Dawley, Hepatic: Centrilobular hepatocellular hypertrophy at 200 mg/kg/day", "result": 200, "unit": "mg/kg-day"}]}
